Assay [1] concerns the target human CXCR4 (Homo sapiens, UniProt P61073). Nature of the assay: IC50 for CXCR4/CXCL12 ligand binding, HTRF format (Example 24). The arrangement: host or cells: HEK293 (Tag-lite CXCR4 cells, frozen aliquots, transient expression). As to the method: Peptides were initially prepared as 1 mM stock in H2O. […] Following the manufacture's protocol, a frozen aliquot of Tag-lite CXCR4 cells was thawed and immediately seeded onto 384-well plates in TLB. […] The plates were covered in aluminum foil and left at room temperature for 3 hours. Following the 3 hour incubation period, the plates were removed from the incubator and fluorescence measured using a Cytation 1 plate reader using a HTRF filter cube ([…]; BioTek; Winooski, Vt.).
In general terms: Time-resolved FRET reads energy transfer from a long-lived donor to a nearby acceptor.

Assay [2] has as its system Jurkat cells. The assay can be described thus: CXCL12 mediated cell migration, Jurkat cells. Type of assay: cell-based, human. The conditions noted are these: 1.1 μM test article, 100 ng/ml CXCL12, 1 hour. The essentials:
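Jurkat cells in serum-free RPMI with 0.5% BSA, 250,000 per upper chamber of a 5 μm Transwell, with peptides at 1.1 μM final. Migration toward CXCL12 ran 1 h at 37 °C in 5% CO2. Cells reaching the lower chamber quantified by ATP luminescence (CellTiter-Glo 2.0).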

In assay [3] the test system is C2C12 Mouse Myoblasts. The assay can be described thus: Glucose utilization in C2C12 mouse myoblasts. Type of assay: cell-based. The conditions noted are these: peptide 10 μM, 18-22 hours, relative to 0.1% DMSO treated control cells. The procedure:
The effect of the peptides on glucose metabolism can be assessed using an assay of glucose utilization in cultured cultured cells such as mouse myoblasts. Peptides were initially prepared as 10 mM stock in DMSO and used at a final concentration of 10 μM (0.1% DMSO). C2C12 mouse myoblast cell line was purchased from American Type Culture Collection (Manassas, Va.). C2C12 cultures were maintained at 37° C. in a humidified atmosphere of 5% CO2/95% air with medium changes every second day. C2C12 cells were grown in DMEM (1 g/L glucose) supplemented with 10% FBS with 100 IU/ml penicillin and 100 μg/ml streptomycin. C2C12 cells were seeded at 7,000 cells per well on 96-well plates and cultured to confluence. Once the cell reached confluence the media was changed to DMEM (1 g/L glucose) supplemented with 2% HS with 100 IU/ml penicillin and 100 μg/ml streptomycin and maintained at 37° C. in a humidified atmosphere of 5% CO2/95% air, 5 days post-induction of differentiation fresh DMEM (1 g/L glucose) supplemented with 2% HS with 100 IU/ml penicillin and 100 μg/ml streptomycin was added to cultures. Cells were maintained at 37° C. in a humidified atmosphere of 5% CO2 and 95% air for 5 hours. After 5 hours test peptides at 10 μM or controls (0.5 mM or 1 mM metformin in 1% DMSO) prepared in fresh differentiation medium were added to cells and the cultures were maintained at 37° C. in a humidified atmosphere of 5% CO2/95% air for 18-22 hours. At the end of the incubation culture media was removed from the cells and the remaining glucose concentration was measured using a Glucose Assay kit (Abcam) according to the manufacturer's instructions, using a Cytation 3 plate reader at 570 nm (BioTek, Winooski, Vt.). Glucose concentrations in the medium were calculated relative to 0.1% DMSO treated control cells. The relative standard deviation of the result for the 0.1% DMSO treated control was <20%. Metformin was used as a positive control for reduction of glucose levels (increased glucose utilization glucose levels for treatment with metformin (1 mM) treatment were <20% of the 0.1% DMSO treated control value. The results are reported in Table 7.

Assay [4] concerns Rat H-4-II-E Cells. Nature of the assay: TBHP-induced reactive oxygen species (DCFDA). Type of assay: cell-based. As to conditions: peptide 10 μM 18-20 hours, then TBHP 100 μM 1 hour; relative to TBHP control. The procedure: The protective or synergistic effect of the peptides on cellular levels of reactive oxygen species (ROS) induced by oxidative stress can be assessed using an assay of ROS in cultured cells exposed to a suitable oxidative stress. Peptides were initially prepared as 10 mM stock in DMSO and tested at a final concentration of 10 μM (0.1% DMSO). […] TBHP was used at final concentration of […]. Sulforaphane was used at a final concentration of 10 uM as a protective antioxidant control against TBHP induced ROS production. DCFDA Cellular ROS Detection Assay kit was purchased from […]. H-4-II-E rat liver hepatoma cell line was purchased from American Type Culture Collection (Manassas, Va.). H-4-II-E cells were grown in DMEM supplemented with 10% FBS with 100 IU/ml penicillin and 100 μg/ml streptomycin. Cultures were maintained at 37° C. in a humidified atmosphere of 5% CO2/95% air. H-4-II-E cells were seeded at 15,000-20,000 cells per well on 96-well plates. The next day cells were incubated with test peptides at 10 μM in 0.1% DMSO or sulforaphane at 10 uM and maintained at 37° C. in a humidified atmosphere of 5% CO2/95% air for 18-20 hours. After 18-20 hours of incubation the cells were loaded with DCFDA for 45 min. TBHP at 100 μM was then added to the appropriate wells for 1 hour. ROS activity was determined using a DCFDA Cellular ROS Detection Assay kit (Abcam) according to the manufacturer's instructions. Fluorescence in each sample well on the plate was measured using a Cytation 3 plate reader at Ex/Em=485/535 nm (BioTek, Winooski, Vt.). Activity was calculated relative to TBHP control. […] Activity was calculated relative to THBP treated control.

pIC50: −log10 of the molar value. Square brackets hold non-standard residues; d marks the D form. Peptide text beside a SMILES is read from it.

Chain of human CXCR4 (P61073 whole entry): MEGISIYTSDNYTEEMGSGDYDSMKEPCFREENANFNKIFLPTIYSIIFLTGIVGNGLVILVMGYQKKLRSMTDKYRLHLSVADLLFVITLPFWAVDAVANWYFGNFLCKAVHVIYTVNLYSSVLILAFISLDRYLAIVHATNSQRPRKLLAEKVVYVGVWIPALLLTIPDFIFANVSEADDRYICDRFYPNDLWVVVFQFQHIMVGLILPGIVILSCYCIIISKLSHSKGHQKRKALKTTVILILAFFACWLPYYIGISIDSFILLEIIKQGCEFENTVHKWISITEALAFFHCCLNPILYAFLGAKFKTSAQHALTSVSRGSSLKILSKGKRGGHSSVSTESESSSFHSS

In the case of `CC(C)C[C@H](NC(=O)[C@H](CO)NC(=O)[C@H](CO)NC(=O)[C@H](CCCNC(=N)N)NC(=O)[C@@H](C)NC(=O)[C@H](CO)NC(=O)[C@H](Cc1c[nH]cn1)NC(=O)[C@H](Cc1c[nH]cn1)NC(=O)[C@H](Cc1ccc(O)cc1)NC(=O)[C@H](CCCNC(=N)N)NC(=O)[C@H](CCC(=O)O)NC(=O)[C@@H](N)CC(C)C)C(=O)N[C@@H](CCCNC(=N)N)C(=O)N1CCC[C@H]1C(=O)N[C@@H](Cc1ccc(O)cc1)C(=O)N[C@H](C(=O)O)[C@@H](C)O` [compound 5] (H-LERYHHS[dA]RSSLRPYT-OH; N-terminus and C-terminus assumed), the negative-log IC50 (pIC50) in assay [1] was 7.48. Besides, in assay [2], the “Percent Inhibition of CXCL12 Mediated Migration (1.1 μM Test Article)” value (“Percent Inhibition” for short) is 46%. For the same molecule, the “Glucose concentration in medium, Percent of Untreated Control” value (“Glucose concentration in medium, Percent” for short) in assay [3] stood at 128.3%. Besides, the “TBHP-Induced ROS, Percent of Control” value in assay [4] is 99.2%.
Take `CSCC[C@H](N)C(=O)N[C@@H](CC(C)C)C(=O)N[C@@H](CCCNC(=N)N)C(=O)N[C@@H](CCCNC(=N)N)C(=O)N[C@@H](Cc1ccc(O)cc1)C(=O)N[C@@H](Cc1c[nH]cn1)C(=O)N[C@@H](Cc1c[nH]cn1)C(=O)N[C@@H](CO)C(=O)N[C@H](C(=O)N[C@@H](CCCNC(=N)N)C(=O)N[C@@H](CO)C(=O)N[C@@H](CO)C(=O)N[C@@H](CC(C)C)C(=O)N[C@@H](CCCNC(=N)N)C(=O)N1CCC[C@H]1C(=O)N[C@@H](Cc1ccc(O)cc1)C(=O)N[C@H](C(=O)N[C@@H](CCCCN)C(=O)O)[C@@H](C)O)C(C)C` [compound 2] (H-MLRRYHHSVRSSLRPYTK-OH; N-terminus and C-terminus assumed): in assay [2], the “Percent Inhibition” value stood at 4%. For the same molecule, in assay [3], the “Glucose concentration in medium, Percent” value worked out at 126.7%. Further, the “TBHP-Induced ROS, Percent of Control” value in assay [4] was found to be 90.9%.
The corresponding values for `CC(C)C[C@H](NC(=O)[C@H](CO)NC(=O)[C@H](CO)NC(=O)[C@H](CCCNC(=N)N)NC(=O)[C@@H](NC(=O)[C@H](CO)NC(=O)[C@H](Cc1c[nH]cn1)NC(=O)[C@H](Cc1c[nH]cn1)NC(=O)[C@H](Cc1ccc(O)cc1)NC(=O)[C@H](CCCNC(=N)N)NC(=O)[C@H](CCCNC(=N)N)NC(=O)[C@@H](N)CC(C)C)C(C)C)C(=O)N[C@@H](CCCNC(=N)N)C(=O)N1CCC[C@H]1C(=O)N[C@@H](Cc1ccc(O)cc1)C(=O)N[C@H](C(=O)N[C@@H](CCCCN)C(=O)O)[C@@H](C)O` [compound 3] (H-LRRYHHSVRSSLRPYTK-OH; N-terminus and C-terminus assumed) are 66%, 125.8% and 95.5%.
In turn, `CC(C)C[C@H](NC(=O)[C@H](CO)NC(=O)[C@H](CO)NC(=O)[C@H](CCCNC(=N)N)NC(=O)[C@@H](NC(=O)[C@H](CO)NC(=O)[C@H](Cc1c[nH]cn1)NC(=O)[C@H](Cc1c[nH]cn1)NC(=O)[C@H](Cc1ccc(O)cc1)NC(=O)[C@H](CCCNC(=N)N)NC(=O)[C@H](CCC(=O)O)NC(=O)[C@@H](N)CC(C)C)C(C)C)C(=O)N[C@@H](CCCNC(=N)N)C(=O)N1CCC[C@H]1C(=O)N[C@@H](Cc1ccc(O)cc1)C(=O)N[C@H](C(=O)N[C@@H](CCCCN)C(=O)O)[C@@H](C)O` [compound 4] (H-LERYHHSVRSSLRPYTK-OH; N-terminus and C-terminus assumed) had a pIC50 in assay [1] of 8.22. In addition, the “Percent Inhibition” value in assay [2] stood at 77%. Besides, the “Glucose concentration in medium, Percent” value in assay [3] stood at 127.8%. For the same molecule, the “TBHP-Induced ROS, Percent of Control” value in assay [4] was found to be 95.8%.

Usually pIC50 stands for the negative decadic logarithm of the IC50, by convention in mol/L. A low value points to a high IC50.

These data come from US20220395553A1, “CXCR4 ANTAGONIST PEPTIDES” (COHBAR, INC., priority 2019, published 2022).
